Experimental data from patent USRE49873E1, “APP specific bace inhibitors (ASBIs) and uses thereof” (BUCK INSTITUTE FOR RESEARCH ON AGING, priority 2012, dated 2024).

How the values were obtained:
[1] = system: APLP2-Gal4 transactivation in HEK293T cells; assay: APLP2-Gal4/Mint3/TAZ transactivation assay; format: cell-based; details: Mint3 and TAZ present; galangin at 10 μM
From the text: (§1) FIGS. 7A and 7B illustrate inhibition of APP-Gal4 and APLP2-Gal4 transactivation by galangin. […] This transactivation was inhibited by Galangin and BACE inhibitor IV. FIG. 7B: Potent transactivation of transcription was also achieved with APLP2 fused to the Gal4 DNA binding domain when both Mint3 and TAZ were present. This transactivation was inhibited by Galangin and BACE inhibitor IV. […] The normalized luciferase activity is expressed as a percentage of the DMSO treated control (FIGS. 7A, 7B). Error bars indicate SEM. (*, p<0.05; **, p<0.01; ***, p<0.001; n=3, student t test).
(§2) This assay system is described by Orcholski et al. (2011) J. Alzheimers Dis., 23(4):689-699. Transactivation is achieved upon transfection with Mint3 and Taz. The ASBI was expected to inhibit only the transactivation of APP-Gal4, not that of APLP2-Gal4. For these experiments cells were co-transfected with a Gal4-luciferase reporter plasmid (to measure transactivation), a beta-galactosidase plasmid (to normalize for transfection efficiency), and the test plasmids identified. The normalized luciferase activity was expressed as fold induction over transcription by APP-Gal4 alone (FIG. 7A), or as fold induction over APLP2-Gal4 alone (FIG. 7B).
(§3) HEK293T cells were co-transfected with five plasmids: (1) pG5E1B-luc, 0.3 μg; (2) pCMV-LacZ, 0.1 μg; (3) pMst-APP (APP-Gal4) or pcDNA3.1-APLP2-Gal4, 0.3 μg; (4) pCMV5-Mint3, 1.0 μg; (5) pEF-N-FLAG-TAZ, 1.0 μg. Cells were harvested 48 hr after transfection in 0.2 ml per well Cell Culture Lysis Buffer (Promega), and their luciferase and β-galactosidase activities were determined with the Promega luciferase assay kit and the Promega β-galactosidase assay kit, respectively. The luciferase activity was standardized by the β-galactosidase activity to control for transfection efficiency and general effects on transcription. Transfections were performed at 80-90% cofluency in six-well plates using Lipofectamine 2000 (Invitrogen).

[2] = system: APP-Gal4 transactivation in HEK293T cells; assay: APP-Gal4/Mint3/TAZ transactivation assay; format: cell-based; details: Mint3 and TAZ present; galangin at 10 μM
From the text: as §1, §2, §3

in vivo = assay: in vivo; set-up: species or system mice; details: mouse; for brain Cmax of galangin: sc, 10 mg/kg
Procedure: The brain penetrance of galangin and progalangin were assessed in a standard PK comprising subcutaneous (Sub-Q) injection of 5 adult non-transgenic mice with 50 ul of a 5 mg/ml stock of compound in dimethylsulfoxide (DMSO) or a dose of 10 mg/kg for a 25 g mouse. Injected mice were anesthetized with ketamine/xylazine at 1, 2, 4, 6, and 8 hours and blood collected by cardiac puncture. The mice were then perfused with saline and brain tissue dissected and snap frozen on dry ice. Blood was centrifuged at 3000 rpm for 10 minutes and the plasma supernatant collected. Both plasma and the right hemibrain were sent to Integrated Analytical Solutions (IAS, Berkeley, Calif.) with a reference sample of compound for compound level analysis in tissue and plasma. The compound levels were determined using a LC-MS/MS approach.
CNS exposure studies were performed and consisted of a time-course design to collect heparinized plasma and brains. Following sc administration of the galangin or progalangin (compound-2) at 10 mg/kg, plasma and brain levels of the compounds were determined by quantitative LC/MS/MS methodology. Plasma samples were precipitated with acetonitrile:methanol (1:1) cocktail containing an internal standard. The brain samples were homogenized directly in ethylacetate or extracted from 5M guanidine homogenates with the liquid-liquid method. The resulting supernatant was evaporated to dryness and subjected to the LC/MS/MS analysis. For each compound 5 mice were used for the analysis. The brain-to-plasma ratios and plasma/brain Cmax levels were then determined (see, e.g., FIG. 8).

[3] = system: Aβ1-40 and Aβ1-42 levels in hippocampal/entorhinal cortical tissue; assay: Pilot efficacy testing in PDAPP (J20) AD model mice, Aβ ELISA; format: in vivo; details: 40 mpk sc daily for 14 days, hippocampus and cortex, 40 mg/kg
Procedure: Galangin and progalangin (PG-1) were dissolved in 10% solutol/15% DMSO/75% polyethylene glycol (PEG). Stock solutions were prepared at 10 mg/ml for each compound and 100 ul was injected subcutaneously daily for 14 days at a dose of 40 mkd. There were 5 PDAPP AD model J20 mice in both the galangin and progalangin groups, and 9 vehicle-only treated J20 controls. Mice were anesthetized, blood collected for plasma, and brain tissue collected as described above 2 hours after injection on the last day of treatment. The right hemibrain was further microdissected to isolate hippocampus and entorhinal cortex and this combined tissue was used for biochemical analysis. The remaining tissue and plasma was sent to IAS for compound level analysis.
Aβ1-42 and Aβ1-40 levels were determined using the hippocampal/entorhinal cortical tissue. Briefly, frozen tissue samples were weighed, and a 20% w/v sonicate prepared in 5M guandine-HCl/50 mM Tris, pH8. Sonication was performed with sample tubes in ice water, 4×5 seconds at 60 Hz, then 3×5 seconds at 80 Hz. Samples were then rotated at room temperature for 3 hours and frozen at −20° C. until assay. Invitrogen ELISA kits were used for Aβ1-40 and Aβ1-42 according to the manufacturer's instructions.

Compound | APLP2-Gal4 transactivation [1] | APP-Gal4 transactivation [2] | brain penetration (in vivo) | brain Cmax of galangin (in vivo) | Aβ1-40 (Aβ40) levels in brain [3] | Aβ1-42 (Aβ42) levels in brain [3] | Aβ1-40 (Aβ40) levels in brain ([3]; listed as pro-galangin I) | Aβ1-42 (Aβ42) levels in brain ([3]; listed as pro-galangin I) | Aβ1-40 (Aβ40) levels in brain ([3]; listed as progalangin) | Aβ1-42 (Aβ42) levels in brain ([3]; listed as progalangin) | galangin levels after PG-1 injection versus galangin itself (in vivo) | plasma levels versus brain tissue levels (in vivo)
BACE inhibitor IV [reference compound] | inhibited | inhibited |  |  |  |  |  |  |  |  |  | 
C[C@@H]1O[C@@H](OC[C@H]2O[C@@H](Oc3c(-c4ccc(O)c(O)c4)oc4cc(O)cc(O)c4c3=O)[C@H](O)[C@@H](O)[C@@H]2O)[C@H](O)[C@H](O)[C@H]1O [Rutin] |  |  | does not cross the blood-brain barrier | no rutin was detectable in the brain |  |  |  |  |  |  |  | 
CC(=O)Oc1cc(OC(C)=O)c2c(=O)c(O)c(-c3ccccc3)oc2c1 [PG-1, 5,7-Diacetoxy-3-hydroxyflavone] |  |  |  | ~100 ng/g | more effective in vivo than galangin | more effective in vivo than galangin | slightly lowered | slightly lowered | reduction | reduction | much higher | Plasma levels were greater than brain tissue levels
